Results as given in US20250197372A1 (priority 2020, published 2025).

Assays:
Type in all cases: biochemical
[1] = target: rat sucrase (partially purified alpha-glucosidase from intestinal rat powder) (Rattus norvegicus, UniProt P23739); test: Intestinal alpha-glucosidase assay, sucrose substrate (Glucose GO Kit)
In short: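 First step: 60 min, 37 °C, compound with partially purified rat intestinal alpha-glucosidase. Next, maltose or sucrose for 30 min at 37 °C, ended at 90 °C for 5 min. Glucose quantified enzymatically; concentration–inhibition data fitted 4-PL for IC50.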

[2] = target: recombinant human GAA (acid alpha-glucosidase) (Homo sapiens, UniProt P10253); test: Acid alpha-glucosidase (GAA) assay (4-methylumbelliferyl-alpha-D-pyranoside substrate, fluorescence)
In short: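 IC50 from 4-PL curve fit of percent inhibition, based on fluorescence (365/440 nm) of released methylumbelliferone relative to uninhibited enzyme. Compound dilutions and human GAA incubated 60 min, 37 °C, before 20 min substrate reaction at 37 °C, quenched at pH 10.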

[3] = target: T1, recombinant human GBA (beta-glucocerebrosidase) (Homo sapiens, UniProt P04062); test: Beta-glucocerebrosidase (GBA, glucosylceramidase) assay (4-methylumbelliferyl-beta-D-pyranoside substrate, fluorescence)
T1 sequence (P04062 40-536): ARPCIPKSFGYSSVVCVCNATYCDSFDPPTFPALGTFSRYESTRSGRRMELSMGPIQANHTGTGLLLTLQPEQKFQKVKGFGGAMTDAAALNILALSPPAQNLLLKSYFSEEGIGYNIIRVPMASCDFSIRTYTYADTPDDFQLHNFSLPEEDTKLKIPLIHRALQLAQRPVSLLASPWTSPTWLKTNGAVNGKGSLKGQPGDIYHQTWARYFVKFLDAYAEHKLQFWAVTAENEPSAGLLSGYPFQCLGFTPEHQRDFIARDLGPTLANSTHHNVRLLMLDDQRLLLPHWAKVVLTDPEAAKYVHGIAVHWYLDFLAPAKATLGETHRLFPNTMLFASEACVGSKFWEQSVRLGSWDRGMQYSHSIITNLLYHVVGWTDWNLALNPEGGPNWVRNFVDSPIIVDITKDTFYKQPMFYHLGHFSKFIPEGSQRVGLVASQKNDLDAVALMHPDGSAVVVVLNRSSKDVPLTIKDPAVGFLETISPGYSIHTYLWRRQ
In short: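 IC50 by four-parameter fit of percent inhibition, with product fluorescence (365/440 nm) read after a glycine/NaOH pH 10 stop. Compound and commercial recombinant human enzyme were incubated 60 min at 37 °C before a further 60 min at 37 °C with 4-methylumbelliferyl-beta-D-pyranoside substrate.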

[4] = target: T2, recombinant alpha-glucosidase II (murine full-length glucosidase II, alpha and beta subunits, Glu 2) (Mus musculus, UniProt Q8BHN3); test: Alpha-glucosidase II assay (4-methylumbelliferyl-alpha-D-pyranoside substrate, fluorescence); settings: Glucosidase 2; read-out: Glu2 IC50
T2 construct: made in house; host or cells: HEK-293T cells transduced with BacMam viruses (75% alpha, 25% beta); protein harvested from culture supernatant
T2 sequence (O08795 15-521): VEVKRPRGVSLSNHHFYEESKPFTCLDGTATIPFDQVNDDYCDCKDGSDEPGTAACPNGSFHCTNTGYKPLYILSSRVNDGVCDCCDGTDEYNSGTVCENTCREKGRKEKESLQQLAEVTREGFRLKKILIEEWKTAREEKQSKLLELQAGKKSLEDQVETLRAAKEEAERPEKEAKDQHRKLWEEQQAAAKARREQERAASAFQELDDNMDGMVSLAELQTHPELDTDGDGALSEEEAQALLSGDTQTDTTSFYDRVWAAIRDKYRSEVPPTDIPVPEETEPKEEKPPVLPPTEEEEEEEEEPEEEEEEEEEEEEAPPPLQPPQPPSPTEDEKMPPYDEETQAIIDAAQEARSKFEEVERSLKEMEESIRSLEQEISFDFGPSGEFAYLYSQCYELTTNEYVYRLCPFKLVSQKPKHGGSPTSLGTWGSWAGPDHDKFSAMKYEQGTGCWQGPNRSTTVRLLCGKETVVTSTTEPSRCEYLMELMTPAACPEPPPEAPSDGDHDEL
T2 sequence (Q8BHN3 33-944): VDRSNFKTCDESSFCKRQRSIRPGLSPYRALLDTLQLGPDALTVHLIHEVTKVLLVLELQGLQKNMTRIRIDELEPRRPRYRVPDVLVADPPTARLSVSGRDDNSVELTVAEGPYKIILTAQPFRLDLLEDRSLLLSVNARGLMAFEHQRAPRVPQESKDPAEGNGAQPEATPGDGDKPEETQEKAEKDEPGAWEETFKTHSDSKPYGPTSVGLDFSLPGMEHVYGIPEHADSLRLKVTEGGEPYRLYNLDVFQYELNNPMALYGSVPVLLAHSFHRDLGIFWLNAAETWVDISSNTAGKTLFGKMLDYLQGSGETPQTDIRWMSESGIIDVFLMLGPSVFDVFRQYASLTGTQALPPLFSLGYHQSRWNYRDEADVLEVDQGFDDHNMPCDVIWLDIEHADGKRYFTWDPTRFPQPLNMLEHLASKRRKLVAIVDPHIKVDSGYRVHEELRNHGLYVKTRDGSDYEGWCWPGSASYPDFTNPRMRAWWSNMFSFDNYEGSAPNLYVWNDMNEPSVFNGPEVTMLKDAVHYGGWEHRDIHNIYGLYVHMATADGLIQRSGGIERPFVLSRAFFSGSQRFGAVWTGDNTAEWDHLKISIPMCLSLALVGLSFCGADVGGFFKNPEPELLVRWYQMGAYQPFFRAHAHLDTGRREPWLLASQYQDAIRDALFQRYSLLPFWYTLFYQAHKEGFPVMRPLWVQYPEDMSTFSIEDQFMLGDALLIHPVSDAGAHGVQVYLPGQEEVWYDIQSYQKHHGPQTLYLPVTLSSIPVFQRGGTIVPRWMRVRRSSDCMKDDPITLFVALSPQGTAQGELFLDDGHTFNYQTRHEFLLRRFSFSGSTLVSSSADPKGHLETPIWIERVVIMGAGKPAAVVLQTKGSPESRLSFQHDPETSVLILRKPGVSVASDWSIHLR

Sequence of rat sucrase (partially purified alpha-glucosidase from intestinal rat powder) (P23739 whole entry): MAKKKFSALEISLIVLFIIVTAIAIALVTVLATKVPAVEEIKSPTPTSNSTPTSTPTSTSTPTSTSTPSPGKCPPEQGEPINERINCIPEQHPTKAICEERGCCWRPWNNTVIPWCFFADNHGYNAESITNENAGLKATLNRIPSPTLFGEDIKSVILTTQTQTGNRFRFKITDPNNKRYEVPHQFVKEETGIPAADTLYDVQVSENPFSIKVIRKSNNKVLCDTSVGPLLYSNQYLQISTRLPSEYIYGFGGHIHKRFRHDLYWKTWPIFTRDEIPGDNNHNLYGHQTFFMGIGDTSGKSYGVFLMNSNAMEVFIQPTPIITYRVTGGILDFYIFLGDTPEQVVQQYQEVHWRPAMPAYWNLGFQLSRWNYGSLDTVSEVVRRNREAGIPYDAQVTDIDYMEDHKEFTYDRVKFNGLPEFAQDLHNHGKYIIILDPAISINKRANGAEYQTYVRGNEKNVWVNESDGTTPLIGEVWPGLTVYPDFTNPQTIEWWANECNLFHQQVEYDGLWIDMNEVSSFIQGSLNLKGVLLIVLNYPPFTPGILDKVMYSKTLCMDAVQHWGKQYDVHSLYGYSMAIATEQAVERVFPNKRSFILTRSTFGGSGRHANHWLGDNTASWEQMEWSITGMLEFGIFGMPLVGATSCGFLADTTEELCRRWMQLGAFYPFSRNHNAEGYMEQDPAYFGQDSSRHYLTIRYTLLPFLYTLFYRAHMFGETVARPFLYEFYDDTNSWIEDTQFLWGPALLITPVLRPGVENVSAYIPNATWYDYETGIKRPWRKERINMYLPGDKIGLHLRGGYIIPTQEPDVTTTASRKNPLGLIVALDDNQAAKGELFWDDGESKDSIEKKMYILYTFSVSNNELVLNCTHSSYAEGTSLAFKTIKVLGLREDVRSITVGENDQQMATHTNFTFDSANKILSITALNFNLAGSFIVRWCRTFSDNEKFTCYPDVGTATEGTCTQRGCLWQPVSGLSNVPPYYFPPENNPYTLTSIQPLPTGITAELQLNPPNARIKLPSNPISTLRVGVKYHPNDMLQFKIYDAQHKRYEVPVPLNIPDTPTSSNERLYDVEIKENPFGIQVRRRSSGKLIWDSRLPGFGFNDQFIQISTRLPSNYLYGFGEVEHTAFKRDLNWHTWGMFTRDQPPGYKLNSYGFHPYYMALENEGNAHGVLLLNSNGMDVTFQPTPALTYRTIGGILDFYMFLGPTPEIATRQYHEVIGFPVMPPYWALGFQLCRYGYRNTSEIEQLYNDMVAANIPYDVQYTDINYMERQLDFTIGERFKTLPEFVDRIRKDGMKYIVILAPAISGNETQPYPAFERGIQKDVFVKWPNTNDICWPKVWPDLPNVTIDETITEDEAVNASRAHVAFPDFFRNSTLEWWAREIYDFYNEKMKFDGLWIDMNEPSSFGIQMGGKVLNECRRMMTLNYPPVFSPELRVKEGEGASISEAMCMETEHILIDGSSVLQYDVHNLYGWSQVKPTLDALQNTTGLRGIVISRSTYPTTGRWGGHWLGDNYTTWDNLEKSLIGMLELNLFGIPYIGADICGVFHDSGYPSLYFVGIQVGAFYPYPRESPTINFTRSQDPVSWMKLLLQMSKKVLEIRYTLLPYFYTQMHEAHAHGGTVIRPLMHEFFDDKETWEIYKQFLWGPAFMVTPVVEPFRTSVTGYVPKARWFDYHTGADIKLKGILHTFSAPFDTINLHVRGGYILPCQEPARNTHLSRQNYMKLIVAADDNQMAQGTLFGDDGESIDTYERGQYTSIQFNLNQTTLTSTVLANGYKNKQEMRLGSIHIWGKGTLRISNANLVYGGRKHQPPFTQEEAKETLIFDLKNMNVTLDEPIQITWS

SMILES	IC50 [1] [nM]	IC50 [2] [nM]	IC50 [3] [nM]	IC50 [4] [nM]
O=[N+]([O-])c1cc(-c2ncccn2)ccc1NCc1cccc(CN2C[C@H](O)[C@@H](O)[C@H](O)[C@H]2CO)c1 [Compound 1090, (2R,3R,4R,5S)-2-(hydroxymethyl)-1-{[3-({[2-nitro-4-(pyrimidin-2-yl)phenyl]amino}methyl)phenyl]methyl}piperidine-3,4,5-triol]	2	509	32400	13800
CS(=O)(=O)c1cc(NCc2ccc(CN3C[C@H](O)[C@@H](O)[C@H](O)[C@H]3CO)cc2)cc(N2CCOCC2)c1 [Compound 1054, (2R,3R,4R,5S)-2-(hydroxymethyl)-1-{[4-({[3-methanesulfonyl-5-(morpholin-4-yl)phenyl]amino}methyl)phenyl]methyl}piperidine-3,4,5-triol]	160	371	> 100000	2200
OC[C@@H]1[C@@H](O)[C@H](O)[C@@H](O)CN1Cc1ccc(CNc2ccc(C3=COCCO3)cc2)cc1 [Compound 1093, (2R,3R,4R,5S)-1-{[4-({[4-(5,6-dihydro-1,4-dioxin-2-yl)phenyl]amino}methyl)phenyl]methyl}-2-(hydroxymethyl)piperidine-3,4,5-triol]	7	108	7480	1040
OC[C@@H]1[C@@H](O)[C@H](O)[C@@H](O)CN1Cc1ccc(CNc2ccc(-c3ncccn3)cc2)cc1 [Compound 1096, (2R,3R,4R,5S)-2-(hydroxymethyl)-1-{[4-({[4-(pyrimidin-2-yl)phenyl]amino}methyl)phenyl]methyl}piperidine-3,4,5-triol]	23	259	17600	1430
N#Cc1cc(NCc2cccc(CN3C[C@H](O)[C@@H](O)[C@H](O)[C@H]3CO)c2)cc(-c2cccnn2)c1 [Compound 1046, 3-(pyridazin-3-yl)-5-{[(3-{[(2R,3R,4R,5S)-3,4,5-trihydroxy-2-(hydroxymethyl)piperidin-1-yl]methyl}phenyl)methyl]amino}benzonitrile]	52	1630	87300	18000
N#Cc1cc(NCc2cccc(CN3C[C@H](O)[C@@H](O)[C@H](O)[C@H]3CO)c2)cc(-c2ncccn2)c1 [Compound 1047, 3-(pyrimidin-2-yl)-5-{[(3-{[(2R,3R,4R,5S)-3,4,5-trihydroxy-2-(hydroxymethyl)piperidin-1-yl]methyl}phenyl)methyl]amino}benzonitrile]	11	1470	87300	12900
O=[N+]([O-])c1cc(-c2cccnn2)ccc1NCCc1ccc(CCN2C[C@H](O)[C@@H](O)[C@H](O)[C@H]2CO)cc1 [Compound 1109, (2R,3R,4R,5S)-2-(hydroxymethyl)-1-{2-[4-(2-{[2-nitro-4-(pyridazin-3-yl)phenyl]amino}ethyl)phenyl]ethyl}piperidine-3,4,5-triol]	446	3	6550	< 1
OC[C@@H]1[C@@H](O)[C@H](O)[C@@H](O)CN1Cc1ccc(CNc2ccc(-c3ccc[nH]3)cc2)cc1 [Compound 1094, (2R,3R,4R,5S)-2-(hydroxymethyl)-1-{[4-({[4-(1H-pyrrol-2-yl)phenyl]amino}methyl)phenyl]methyl}piperidine-3,4,5-triol]	57	246	12300	177
O=[N+]([O-])c1cc(-c2ccncc2)ccc1NCCc1ccc(CCN2C[C@H](O)[C@@H](O)[C@H](O)[C@H]2CO)cc1 [Compound 1110, (2R,3R,4R,5S)-2-(hydroxymethyl)-1-{2-[4-(2-{[2-nitro-4-(pyridin-4-yl)phenyl]amino}ethyl)phenyl]ethyl}piperidine-3,4,5-triol]	63	7	48	< 1
OC[C@@H]1[C@@H](O)[C@H](O)[C@@H](O)CN1CCc1ccc(CCNc2cc(Cl)cc(-c3noc(C4CCC4)n3)c2)cc1 [Compound 1122, (2R,3R,4R,5S)-1-{2-[4-(2-{[3-chloro-5-(5-cyclobutyl-1,2,4-oxadiazol-3-yl)phenyl]amino}ethyl)phenyl]ethyl}-2-(hydroxymethyl)piperidine-3,4,5-triol]	1660	558	6	294
O=[N+]([O-])c1cc(C2=COCCO2)ccc1NCc1cccc(CN2C[C@H](O)[C@@H](O)[C@H](O)[C@H]2CO)c1 [Compound 1087, (2R,3R,4R,5S)-1-{[3-({[4-(5,6-dihydro-1,4-dioxin-2-yl)-2-nitro-phenyl]amino}methyl)phenyl]methyl}-2-(hydroxymethyl)piperidine-3,4,5-triol]	< 1	554	> 100000	8110
O=[N+]([O-])c1cc(C2=COCCO2)ccc1NCc1ccc(CN2C[C@H](O)[C@@H](O)[C@H](O)[C@H]2CO)cc1 [Compound 1099, (2R,3R,4R,5S)-1-{[4-({[4-(5,6-dihydro-1,4-dioxin-2-yl)-2-nitrophenyl]amino}methyl)phenyl]methyl}-2-(hydroxymethyl)piperidine-3,4,5-triol]	< 1	< 1	37100	< 1
Cc1cc(NCc2ccc(CN3C[C@H](O)[C@@H](O)[C@H](O)[C@H]3CO)cc2)cc(N2CCOCC2)c1 [Compound 1048, (2R,3R,4R,5S)-2-(hydroxymethyl)-1-{[4-({[3-methyl-5-(morpholin-4-yl)phenyl]amino}methyl)phenyl]methyl}piperidine-3,4,5-triol]	59	366	> 100000	550
OC[C@@H]1[C@@H](O)[C@H](O)[C@@H](O)CN1CCCCCCNc1cc(C2CC2)cc(N2CCOCC2)c1 [Compound 1006, (2R,3R,4R,5S)-1-(6-{[3-cyclopropyl-5-(morpholin-4-yl)phenyl]amino}hexyl)-2-(hydroxymethyl)piperidine-3,4,5-triol]	116	124	618	1
O=[N+]([O-])c1cc(-c2ncc[nH]2)ccc1NCCc1ccc(CCN2C[C@H](O)[C@@H](O)[C@H](O)[C@H]2CO)cc1 [Compound 1078, (2R,3R,4R,5S)-2-(hydroxymethyl)-1-{2-[4-(2-{[4-(1H-imidazol-2-yl)-2-nitrophenyl]amino}ethyl)phenyl]ethyl}piperidine-3,4,5-triol]	506	343	6970	95
Cc1cc(NCc2ccc(CN3C[C@H](O)[C@@H](O)[C@H](O)[C@H]3CO)cc2)cc(-c2ccc[nH]2)c1 [Compound 1051, (2R,3R,4R,5S)-2-(hydroxymethyl)-1-{[4-({[3-methyl-5-(1H-pyrrol-2-yl)phenyl]amino}methyl)phenyl]methyl}piperidine-3,4,5-triol]	< 1	291	15000	213
O=[N+]([O-])c1cc(-c2cccnn2)ccc1NCc1cccc(CN2C[C@H](O)[C@@H](O)[C@H](O)[C@H]2CO)c1 [Compound 1089, (2R,3R,4R,5S)-2-(hydroxymethyl)-1-{[3-({[2-nitro-4-(pyridazin-3-yl)phenyl]amino}methyl)phenyl]methyl}piperidine-3,4,5-triol]	23	572	97100	20700
N#Cc1cc(NCc2ccc(CN3C[C@H](O)[C@@H](O)[C@H](O)[C@H]3CO)cc2)cc(C2=COCCO2)c1 [Compound 1062, 3-(5,6-dihydro-1,4-dioxin-2-yl)-5-{[(4-{[(2R,3R,4R,5S)-3,4,5-trihydroxy-2-(hydroxymethyl)piperidin-1-yl]methyl}phenyl)-methyl]amino}benzonitrile]	< 1	68	35500	< 1
N#Cc1cc(NCc2ccc(CN3C[C@H](O)[C@@H](O)[C@H](O)[C@H]3CO)cc2)cc(-c2ccc[nH]2)c1 [Compound 1063, 3-(1H-pyrrol-2-yl)-5-{[(4-{[(2R,3R,4R,5S)-3,4,5-trihydroxy-2-(hydroxymethyl)piperidin-1-yl]methyl}phenyl)methyl]amino}-benzonitrile]	< 1	32	> 100000	70
